According to ChEMBL document CHEMBL6103580, “Synthesis and biological evaluation of natural cleistanolate, its enantiomer and analogues” (Eur J Med Chem, 2025):
Activity calls are given as the source filed them. The rule behind the calls is not given here.

Assays:
[1] = system: Escherichia coli; assay: Antimicrobial activity against Escherichia coli ZPM 132 assessed as reduction in cell viability incubated for 24 hrs by muller hinton broth microdilution based XTT assay; assay type: functional
[2] = system: Streptococcus pneumoniae; assay: Antibacterial activity against Streptococcus pneumoniae ZPM 187 assessed as reduction in cell viability incubated for 24 hrs by muller hinton broth microdilution based XTT assay; assay type: functional
[3] = system: Vibrio cholerae; assay: Antibacterial activity against Vibrio cholerae O139 CIRS 245 assessed as reduction in cell viability incubated for 24 hrs by muller hinton broth microdilution based XTT assay; assay type: functional
[4] = biological target: Cholinesterase (Homo sapiens) (UniProt P06276); assay: Inhibition of human BChE at 100 uM using acetylthiocholine iodide as substrate by DTNB reagent based Ellman spectrophotometric analysis relative to control
[5] = system: Candida tropicalis; assay: Antifungal activity against Candida tropicalis CCY 29-7-62 assessed as reduction in fungal growth incubated for 48 hrs by muller hinton broth microdilution based XTT assay; assay type: functional
[6] = system: Escherichia coli; assay: Antibacterial activity against Escherichia coli ZPM 132 assessed as reduction in cell viability incubated for 24 hrs by muller hinton broth microdilution based XTT assay; assay type: functional
[7] = system: Jurkat; assay: Antiproliferative activity against human Jurkat cells assessed as inhibition of cell growth incubated for 72 hrs by MTT assay; assay type: functional, cell-based
[8] = system: K562; assay: Antiproliferative activity against human K562 cells assessed as inhibition of cell growth incubated for 72 hrs by MTT assay; assay type: functional, cell-based; conditions: K562, 72 h
[9] = system: HeLa; assay: Antiproliferative activity against human HeLa cells assessed as inhibition of cell growth incubated for 72 hrs by MTT assay; assay type: functional, cell-based
[10] = system: MCF7; assay: Antiproliferative activity against human MCF7 cells assessed as inhibition of cell growth incubated for 72 hrs by MTT assay; assay type: functional, cell-based; conditions: MCF7, 72 h
[11] = system: HL-60; assay: Antiproliferative activity against human HL-60 cells assessed as inhibition of cell growth incubated for 72 hrs by MTT assay; assay type: functional, cell-based; conditions: HL-60, 72 h
[12] = system: A549; assay: Antiproliferative activity against human A549 cells assessed as inhibition of cell growth incubated for 72 hrs by MTT assay; assay type: functional, cell-based; conditions: A549, 72 h
[13] = Antiproliferative activity against human MRC5 cells assessed as inhibition of cell growth incubated for 72 hrs by MTT assay; assay type: toxicity, cell-based
[14] = system: Raji; assay: Antiproliferative activity against human Raji cells assessed as inhibition of cell growth incubated for 72 hrs by MTT assay; assay type: functional, cell-based
[15] = system: MDA-MB-231; assay: Antiproliferative activity against human MDA-MB-231 cells assessed as inhibition of cell growth incubated for 72 hrs by MTT assay; assay type: functional, cell-based; conditions: MDA-MB-231, 72 h
[16] = Potency index, ratio of doxorubicin IC50 to test compound IC50 for antiproliferative activity against human HL-60 cells assessed as inhibition of cell growth incubated for 72 hrs by MTT assay; assay type: functional
[17] = system: Raji; assay: Potency index, ratio of doxorubicin IC50 to test compound IC50 for antiproliferative activity against human Raji cells assessed as inhibition of cell growth incubated for 72 hrs by MTT assay; assay type: functional
[18] = Potency index, ratio of cleistanolate IC50 to test compound IC50 for antiproliferative activity against human HeLa cells assessed as inhibition of cell growth incubated for 72 hrs by MTT assay; assay type: functional
[19] = system: Raji; assay: Potency index, ratio of cleistanolate IC50 to test compound IC50 for antiproliferative activity against human Raji cells assessed as inhibition of cell growth incubated for 72 hrs by MTT assay; assay type: functional

Sequence of Cholinesterase (Homo sapiens) (P06276 whole entry): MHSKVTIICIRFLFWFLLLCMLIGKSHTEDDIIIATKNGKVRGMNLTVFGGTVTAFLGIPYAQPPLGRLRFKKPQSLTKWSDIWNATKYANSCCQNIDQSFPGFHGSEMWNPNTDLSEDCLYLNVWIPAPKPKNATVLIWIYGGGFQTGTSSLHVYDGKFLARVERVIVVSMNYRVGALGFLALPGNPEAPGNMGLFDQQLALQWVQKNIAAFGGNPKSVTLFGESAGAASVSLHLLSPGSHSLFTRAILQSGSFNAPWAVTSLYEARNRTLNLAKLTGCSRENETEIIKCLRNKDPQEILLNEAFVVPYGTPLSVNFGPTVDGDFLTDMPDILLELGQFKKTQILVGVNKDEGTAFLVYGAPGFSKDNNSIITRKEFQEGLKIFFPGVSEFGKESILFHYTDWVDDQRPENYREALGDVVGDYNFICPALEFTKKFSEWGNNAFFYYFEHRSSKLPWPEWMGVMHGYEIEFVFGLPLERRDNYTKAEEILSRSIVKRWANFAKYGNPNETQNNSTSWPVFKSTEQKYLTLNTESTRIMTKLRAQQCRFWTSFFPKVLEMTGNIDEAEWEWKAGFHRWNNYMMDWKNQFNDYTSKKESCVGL

SMILES: O=C1C[C@H]2O[C@H](CI)[C@H](O)[C@H]2O1
- MIC [1]: > 1000 µg/mL
- MBC [2]: > 100 µg/mL
- MBC [3]: > 100 µg/mL
- inhibition [4]: inactive
- MFC [5]: > 100 µg/mL
- MBC [6]: > 1000 µg/mL

SMILES: CO[C@H]1CC(=O)O[C@H]1[C@H](O)[C@@H](O)COC(=O)c1ccccc1
- IC50 [7]: 32 µM
- IC50 [8]: 9.89 µM
- IC50 [9]: 10.6 µM
- IC50 [10]: 12.8 µM
- IC50 [11]: 10.3 µM
- IC50 [12]: 29.6 µM
- IC50 at 72 h [13]: > 100 µM
- IC50 [14]: 21 µM
- IC50 [15]: 19.9 µM

SMILES: C=C[C@@H](OCc1ccccc1)[C@@H]1OC(=O)C[C@@H]1O
- IC50 [7]: 11.3 µM
- IC50 [8]: 3.95 µM
- MIC [1]: > 1000 µg/mL
- IC50 [9]: 54.1 µM
- IC50 [10]: 9.44 µM
- IC50 [11]: 11.2 µM
- IC50 [12]: 22.6 µM
- MBC [2]: > 100 µg/mL
- MBC [3]: > 100 µg/mL
- IC50 at 72 h [13]: > 100 µM
- inhibition [4]: 13%
- IC50 [14]: 22.2 µM
- IC50 [15]: 21.3 µM
- MFC [5]: > 100 µg/mL
- MBC [6]: > 1000 µg/mL

SMILES: CO[C@H]1CC(=O)O[C@H]1[C@H](OC(=O)c1ccccc1)[C@@H](COC(=O)c1ccccc1)OC(=O)c1ccccc1
- IC50 [7]: 23.4 µM
- IC50 [8]: 17.9 µM
- IC50 [9]: 5.58 µM
- IC50 [10]: 1.31 µM
- IC50 [11]: 6.38 µM
- IC50 [12]: 24.1 µM
- IC50 at 72 h [13]: > 100 µM
- IC50 [14]: 17 µM
- IC50 [15]: 23.7 µM

SMILES: O=C1C[C@@H](O)[C@@H]([C@@H](O)[C@H](O)CO)O1
- IC50 [7]: 3.25 µM
- IC50 [8]: 2.36 µM
- Ratio IC50 [16]: 1.3
- IC50 [9]: 0.89 µM
- IC50 [10]: 0.63 µM
- Ratio IC50 [17]: 1.1
- IC50 [11]: 0.74 µM
- IC50 [12]: 8.64 µM
- IC50 at 72 h [13]: > 100 µM
- Ratio IC50 [18]: 2
- IC50 [14]: 2.64 µM
- IC50 [15]: 5.32 µM

SMILES: O=C1C[C@H]2O[C@@H]3CO[C@@H]3[C@H]2O1
- IC50 [7]: 10.4 µM
- IC50 [8]: 2.03 µM
- IC50 [9]: 1.2 µM
- IC50 [10]: 1.05 µM
- IC50 [11]: 15.6 µM
- IC50 [12]: 18.6 µM
- IC50 at 72 h [13]: > 100 µM
- Ratio IC50 [18]: 2.5
- IC50 [14]: 15.7 µM
- IC50 [15]: 5.36 µM

SMILES: CO[C@@H]1CC(=O)O[C@@H]1[C@@H](O)[C@@H](O)COC(=O)c1ccccc1
- IC50 [7]: 20.2 µM
- IC50 [8]: 11.4 µM
- IC50 [9]: 7.65 µM
- IC50 [10]: 14.4 µM
- IC50 [11]: 12.1 µM
- IC50 [12]: 11.4 µM
- IC50 at 72 h [13]: > 100 µM
- IC50 [14]: 15.4 µM
- IC50 [15]: 27.7 µM

SMILES: O=C1C[C@@H]2O[C@@H](CO)[C@@H](O)[C@@H]2O1
- IC50 [7]: 7.38 µM
- IC50 [8]: 5.56 µM
- IC50 [9]: 7.26 µM
- IC50 [10]: 4.02 µM
- IC50 [11]: 11.2 µM
- IC50 [12]: 15.9 µM
- IC50 at 72 h [13]: > 100 µM
- IC50 [14]: 10.2 µM
- IC50 [15]: 30 µM
- Ratio IC50 [19]: 2.1

SMILES: CO[C@@H]1CC(=O)O[C@@H]1[C@H]1OC(=O)O[C@H]1COC(=O)c1ccccc1
- IC50 [7]: 16 µM
- IC50 [8]: 10 µM
- IC50 [9]: 7.03 µM
- IC50 [10]: 4.31 µM
- IC50 [11]: 10.6 µM
- IC50 [12]: 13.4 µM
- IC50 at 72 h [13]: > 100 µM
- inhibition [4]: 51%
- IC50 [14]: 21.3 µM
- IC50 [15]: 25.8 µM

SMILES: O=C1C[C@@H](O)[C@@H]([C@@H](O)[C@@H](O)CO)O1
- IC50 [7]: 20.3 µM
- IC50 [8]: 16.5 µM
- IC50 [9]: 12.9 µM
- IC50 [10]: 19.5 µM
- IC50 [11]: 19.3 µM
- IC50 [12]: 23.6 µM
- IC50 at 72 h [13]: > 100 µM
- IC50 [14]: 24.4 µM
- IC50 [15]: 19.6 µM

SMILES: CO[C@H]1CC(=O)O[C@H]1[C@H](OC(C)=O)[C@@H](COC(=O)c1ccccc1)OC(C)=O
- IC50 [7]: 24.2 µM
- IC50 [8]: 16.2 µM
- MIC [1]: > 1000 µg/mL
- IC50 [9]: 23.8 µM
- IC50 [10]: 29.4 µM
- IC50 [11]: 19.4 µM
- IC50 [12]: 21.4 µM
- MBC [2]: > 100 µg/mL
- MBC [3]: > 100 µg/mL
- IC50 at 72 h [13]: 87.9 µM
- inhibition [4]: 85%
- IC50 [14]: 27.7 µM
- IC50 [15]: 13.2 µM
- MFC [5]: > 100 µg/mL
- MBC [6]: > 1000 µg/mL

SMILES: CO[C@@H]1CC(=O)O[C@@H]1[C@@H](OC(C)=O)[C@@H](COC(=O)c1ccccc1)OC(C)=O
- IC50 [7]: 22.1 µM
- IC50 [8]: 7.23 µM
- IC50 [9]: 6.31 µM
- IC50 [10]: 13.5 µM
- IC50 [11]: 16.5 µM
- IC50 [12]: 9.78 µM
- IC50 at 72 h [13]: > 100 µM
- IC50 [14]: 31.4 µM
- IC50 [15]: 28.4 µM
- Ratio IC50 [19]: 2.1
